Measurements from US11167007B2, “FOXM1 modulators and uses thereof” (City of Hope, priority 2016, dated 2021).

How the values were obtained:
Assay type in all cases: cell-based, murine
FOXM1 = assay: Western blot of FOXM1 levels in GT1-7 CARY cells; settings: relative to p84 loading control, FIG. 3C
From the text: Western Blot. Cell lysates was separated on a 6% SDS page gel and transferred to a nitrocellulose membrane. The membrane was blocked for one hour in 5% skim milk dissolved in TBS-T and probed with the following antibodies ([…]): FoxM1 (rabbit, GeneTex), AR: 441 (mouse, Santa Cruz Biotechnology), β-catenin (rabbit 9562, Cell Signaling Technology), p84 (mouse, GeneTex) and actin (mouse, Santa Cruz Biotechnology). Horse radish peroxidase linked secondary antibodies were used along with ECL reagents for visualization. Western blots were quantified using Quantity One analysis software (BioRad).
It has been previously reported that thiostrepton causes decreased levels of FOXM1. Hegde et al, Nat Chem, 3(9):725-31 (2011); Gartel, Front Oncol, 3:150 (2013). […] The nuclear association between FOXM1 and β-catenin increases the transcriptional activity of both factors. Zhang et al, Cancer Cell, 20(4):427-42 (2011). β-catenin is a key AR coactivator in a variety of cells. Yang, J Biol Chem, 277(13):11336-44 (2002); Truica et al, Cancer Res, 60(17):4709-13 (2000). The inventors believed that thiostrepton could inhibit AR activity by limiting access to nuclear β-catenin via FOXM1 depletion. […] As expected, control actin protein was observed primarily in cytoplasmic fraction.

AR [1] = assay: Androgen-responsive luciferase reporter assay in GT1-7 cells; settings: GT1-7 cells, treated overnight, FIG. 2A
Experimental: Luciferase Reporter Assay. […] The following day, cells and drugs were distributed to 96-well plates. 24 hours later, luciferase activity was assessed by a dual luciferase assay kit (Promega) on the Tecan plate reader. Samples were run in quadruplicates and a Student's t test was performed to determine significance, where p<0.05 was considered significant.
In order to identify potential cell-type selective AR modulators, the FRET-based assay of AR conformation change was utilized. AR signaling is a complex process involving many steps in addition to ligand binding. One crucial step is the ligand-induced conformational change of AR, which brings the carboxy (C)- and amino (N)-termini of the receptor together. Full length AR with cyan fluorescent protein (CFP) or yellow fluorescent protein (YFP) fused to either end (CARY) produces a FRET signal upon AR conformation change (FIG. 1A). This produces an accurate and quantifiable read-out of AR activity. […] Cells were plated in 96 wells and treated with library compounds 24 hours prior to accessing conformational changes by FRET. […] Candidate hits were then further evaluated by dose response. […] In addition to FRET, AR transcriptional activity was also assessed in several cell lines by transfecting cells with a luciferase reporter driven by the human PSA promoter.

AR [2] = assay: Androgen-responsive luciferase reporter assay in C2C12 cells; settings: treated overnight, FIG. 2A
From the text: Luciferase Reporter Assay. Cells were transfected using Lipofectamine Plus (Invitrogen) with a normalization plasmid (pRL-SV40, Promega) and an androgen responsive plasmid (MMTV-luciferase or PSA-luciferase) as described in Jones et al, ACS Chem Biol, 3(7):412-8 (2008), and, where indicated, with an shRNA plasmid targeting FOXM1 (adapted for mouse FOXM1 sequence targeting) a scrambled control shRNA plasmid, or ARQ24 or ARQ65 plasmids. Christensen et al, PLoS One, 8(1):e54556 (2013). The following day, cells and drugs were distributed to 96-well plates. 24 hours later, luciferase activity was assessed by a dual luciferase assay kit (Promega) on the Tecan plate reader. Samples were run in quadruplicates and a Student's t test was performed to determine significance, where p<0.05 was considered significant.
In order to identify potential cell-type selective AR modulators, the FRET-based assay of AR conformation change was utilized. AR signaling is a complex process involving many steps in addition to ligand binding. One crucial step is the ligand-induced conformational change of AR, which brings the carboxy (C)- and amino (N)-termini of the receptor together. Full length AR with cyan fluorescent protein (CFP) or yellow fluorescent protein (YFP) fused to either end (CARY) produces a FRET signal upon AR conformation change (FIG. 1A). This produces an accurate and quantifiable read-out of AR activity. Jones et al, ACS Chem Biol, 3(7):412-8 (2008). Because the interest was in the potential of neuron selective AR inhibitors for treatment of SBMA, the initial screen was carried out in CARY-transfected GT1-7 cells, which are a mouse model of hypothalamic neurons. Liposits et al, Endocrinology, 129(3):1575-83 (1991). Cells were plated in 96 wells and treated with library compounds 24 hours prior to accessing conformational changes by FRET. […] Candidate hits were then further evaluated by dose response. […] In addition to FRET, AR transcriptional activity was also assessed in several cell lines by transfecting cells with a luciferase reporter driven by the human PSA promoter. […]

## C[C@]12CCC(=O)C[C@@H]1CC[C@@H]1[C@@H]2CC[C@]2(C)[C@@H](O)CC[C@@H]12 [DHT, dihydrotestosterone]
FOXM1
  FOXM1 levels (Western blot): increased

## Nc1c(C(=O)Nc2ccc(F)cc2)sc2nc(-c3cccs3)cc(C(F)(F)F)c12 [FDI-6]
AR [1]
  inhibition of AR transcriptional activity (luciferase): inhibited AR activity
AR [2]
  inhibition of AR transcriptional activity (luciferase): not C2C12 cells
